Measurements as given in ChEMBL document CHEMBL5465560, “Selectivity Literature for EUbOPEN Chemogenomic Library” (2024).

What was measured:
[1] = biological target: Serine/threonine-protein kinase WNK3 (Homo sapiens) (UniProt Q9BYP7); experiment: Selectivity interaction (Upstate Kinase Profiler service (Millipore)) EUB0000056c WNK3; settings: at 1 µM
[2] = biological target: T1, Serine/threonine-protein kinase Sgk1 (Homo sapiens) (UniProt O00141); experiment: Selectivity interaction (KinomeScan (DiscoverX)) EUB0001079a SGK1; settings: at 1 µM
T1 sequence (whole entry): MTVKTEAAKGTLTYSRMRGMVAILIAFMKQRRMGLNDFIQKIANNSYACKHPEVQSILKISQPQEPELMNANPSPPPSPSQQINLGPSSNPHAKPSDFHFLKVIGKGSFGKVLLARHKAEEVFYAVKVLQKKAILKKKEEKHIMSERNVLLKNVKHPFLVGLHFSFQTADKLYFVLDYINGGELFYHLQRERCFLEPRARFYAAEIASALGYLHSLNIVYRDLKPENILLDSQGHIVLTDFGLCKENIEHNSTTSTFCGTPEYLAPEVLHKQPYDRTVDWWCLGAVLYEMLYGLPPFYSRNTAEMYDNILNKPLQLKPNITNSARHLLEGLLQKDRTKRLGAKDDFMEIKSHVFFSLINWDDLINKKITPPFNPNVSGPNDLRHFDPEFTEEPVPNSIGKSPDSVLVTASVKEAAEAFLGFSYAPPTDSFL

[3] = biological target: SRSF protein kinase 3 (Homo sapiens) (UniProt Q9UPE1); experiment: Selectivity interaction (KinomeScan (DiscoverX)) EUB0001079a SRPK3; settings: at 1 µM
[4] = biological target: T2, Peripheral plasma membrane protein CASK (Homo sapiens) (UniProt O14936); experiment: Selectivity interaction (KinomeScan (DiscoverX)) EUB0000666a CASK; settings: at 10 µM
T2 sequence (whole entry): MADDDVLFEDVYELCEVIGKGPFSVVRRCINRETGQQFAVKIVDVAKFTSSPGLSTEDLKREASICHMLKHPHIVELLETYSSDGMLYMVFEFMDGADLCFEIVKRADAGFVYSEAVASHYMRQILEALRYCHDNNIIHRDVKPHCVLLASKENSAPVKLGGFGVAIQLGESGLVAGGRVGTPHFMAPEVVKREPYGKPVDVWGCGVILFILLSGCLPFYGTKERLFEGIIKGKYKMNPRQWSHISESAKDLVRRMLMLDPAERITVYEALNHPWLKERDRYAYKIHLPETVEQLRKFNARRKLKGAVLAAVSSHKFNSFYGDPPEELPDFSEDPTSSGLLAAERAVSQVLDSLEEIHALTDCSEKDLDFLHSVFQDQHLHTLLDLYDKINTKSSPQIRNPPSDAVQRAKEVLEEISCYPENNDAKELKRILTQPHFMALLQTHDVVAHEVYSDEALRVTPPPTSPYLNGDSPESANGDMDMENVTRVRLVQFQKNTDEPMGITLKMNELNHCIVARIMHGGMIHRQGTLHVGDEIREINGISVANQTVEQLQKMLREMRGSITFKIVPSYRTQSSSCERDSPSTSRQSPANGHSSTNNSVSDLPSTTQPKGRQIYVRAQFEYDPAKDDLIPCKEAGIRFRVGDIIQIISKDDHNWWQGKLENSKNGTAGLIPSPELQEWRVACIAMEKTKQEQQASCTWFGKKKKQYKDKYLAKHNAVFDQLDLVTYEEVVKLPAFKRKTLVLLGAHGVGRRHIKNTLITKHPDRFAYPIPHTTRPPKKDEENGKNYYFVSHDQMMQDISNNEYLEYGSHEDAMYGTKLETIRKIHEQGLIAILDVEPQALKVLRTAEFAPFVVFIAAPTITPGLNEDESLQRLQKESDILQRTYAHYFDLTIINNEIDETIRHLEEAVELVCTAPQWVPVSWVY

[5] = biological target: Mitogen-activated protein kinase kinase kinase kinase 1 (Homo sapiens) (UniProt Q92918); experiment: Selectivity interaction (KinomeScan (DiscoverX)) EUB0000666a MAP4K1; settings: at 10 µM
[6] = biological target: T3, Serine/threonine-protein kinase 17A (Homo sapiens) (UniProt Q9UEE5); experiment: Selectivity interaction (Kinase panel (DSF assay)) EUB0001489b STK17A
T3 sequence (whole entry): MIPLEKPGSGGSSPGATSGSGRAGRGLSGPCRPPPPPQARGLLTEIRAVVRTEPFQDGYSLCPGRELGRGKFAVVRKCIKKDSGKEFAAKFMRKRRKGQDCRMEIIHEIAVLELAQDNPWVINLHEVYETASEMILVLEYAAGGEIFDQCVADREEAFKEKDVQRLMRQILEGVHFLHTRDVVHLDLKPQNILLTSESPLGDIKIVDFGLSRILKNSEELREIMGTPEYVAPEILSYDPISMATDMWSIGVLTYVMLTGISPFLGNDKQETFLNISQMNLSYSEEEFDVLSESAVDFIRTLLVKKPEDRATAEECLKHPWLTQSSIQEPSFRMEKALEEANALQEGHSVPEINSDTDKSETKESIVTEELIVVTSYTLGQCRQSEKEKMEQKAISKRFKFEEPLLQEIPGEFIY

[7] = biological target: Serine/threonine-protein kinase 38 (Homo sapiens) (UniProt Q15208); experiment: Selectivity interaction (LanthaScreen Eu Kinase Binding Assay) EUB0001632a STK38; settings: at 10 µM
[8] = biological target: Mitogen-activated protein kinase 4 (Homo sapiens) (UniProt P31152); experiment: Selectivity interaction (KinomeScan (DiscoverX)) EUB0000045b MAPK4
[9] = biological target: LIM domain kinase 1 (Homo sapiens) (UniProt P53667); experiment: Selectivity interaction (KinomeScan (DiscoverX)) EUB0000618a LIMK1; settings: at 10 µM
[10] = biological target: T2, Peripheral plasma membrane protein CASK (Homo sapiens); experiment: Selectivity interaction (Ambit KINOMEscan and KiNATiv profiling in Jurkat cells) EUB0000090b CASK; assay type: cell-based; settings: at 1 µM

Mitogen-activated protein kinase 4 (Homo sapiens), sequence (P31152 whole entry, the tested form may be a part): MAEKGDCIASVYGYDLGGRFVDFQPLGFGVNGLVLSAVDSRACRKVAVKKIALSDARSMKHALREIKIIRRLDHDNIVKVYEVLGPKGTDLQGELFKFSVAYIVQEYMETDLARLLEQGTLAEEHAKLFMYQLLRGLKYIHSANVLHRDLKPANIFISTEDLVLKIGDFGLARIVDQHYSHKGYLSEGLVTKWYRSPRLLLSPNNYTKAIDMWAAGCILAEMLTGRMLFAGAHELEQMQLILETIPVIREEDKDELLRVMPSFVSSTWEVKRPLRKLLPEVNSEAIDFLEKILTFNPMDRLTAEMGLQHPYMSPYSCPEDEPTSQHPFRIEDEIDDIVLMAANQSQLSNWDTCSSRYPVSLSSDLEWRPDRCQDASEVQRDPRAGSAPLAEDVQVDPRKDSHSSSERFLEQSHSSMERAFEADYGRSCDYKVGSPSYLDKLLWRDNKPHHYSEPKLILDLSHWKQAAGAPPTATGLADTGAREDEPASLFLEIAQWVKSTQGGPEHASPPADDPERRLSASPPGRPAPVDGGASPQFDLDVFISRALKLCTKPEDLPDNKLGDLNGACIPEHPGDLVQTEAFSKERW
Mitogen-activated protein kinase kinase kinase kinase 1 (Homo sapiens), sequence (Q92918 whole entry, looked up): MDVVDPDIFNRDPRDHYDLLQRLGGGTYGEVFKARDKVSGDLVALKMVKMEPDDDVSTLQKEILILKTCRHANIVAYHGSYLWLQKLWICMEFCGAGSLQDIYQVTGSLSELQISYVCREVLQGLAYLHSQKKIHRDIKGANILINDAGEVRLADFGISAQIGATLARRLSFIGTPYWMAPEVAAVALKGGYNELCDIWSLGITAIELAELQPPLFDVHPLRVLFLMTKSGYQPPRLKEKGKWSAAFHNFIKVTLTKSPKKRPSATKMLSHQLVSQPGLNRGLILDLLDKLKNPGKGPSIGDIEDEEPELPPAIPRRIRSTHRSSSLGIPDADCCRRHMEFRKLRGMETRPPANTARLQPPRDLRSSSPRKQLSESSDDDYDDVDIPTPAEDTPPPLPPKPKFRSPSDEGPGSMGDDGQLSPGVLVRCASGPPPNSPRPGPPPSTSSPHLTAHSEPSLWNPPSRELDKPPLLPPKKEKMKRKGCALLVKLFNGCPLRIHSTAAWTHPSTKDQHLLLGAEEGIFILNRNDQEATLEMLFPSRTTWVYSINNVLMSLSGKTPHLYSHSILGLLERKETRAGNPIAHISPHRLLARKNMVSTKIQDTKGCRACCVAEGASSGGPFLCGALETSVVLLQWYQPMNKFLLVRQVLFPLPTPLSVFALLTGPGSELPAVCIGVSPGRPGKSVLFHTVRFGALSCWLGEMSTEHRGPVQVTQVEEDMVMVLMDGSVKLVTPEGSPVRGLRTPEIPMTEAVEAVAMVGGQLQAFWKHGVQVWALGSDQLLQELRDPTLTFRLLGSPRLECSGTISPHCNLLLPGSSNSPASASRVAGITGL
SRSF protein kinase 3 (Homo sapiens), sequence (Q9UPE1 whole entry): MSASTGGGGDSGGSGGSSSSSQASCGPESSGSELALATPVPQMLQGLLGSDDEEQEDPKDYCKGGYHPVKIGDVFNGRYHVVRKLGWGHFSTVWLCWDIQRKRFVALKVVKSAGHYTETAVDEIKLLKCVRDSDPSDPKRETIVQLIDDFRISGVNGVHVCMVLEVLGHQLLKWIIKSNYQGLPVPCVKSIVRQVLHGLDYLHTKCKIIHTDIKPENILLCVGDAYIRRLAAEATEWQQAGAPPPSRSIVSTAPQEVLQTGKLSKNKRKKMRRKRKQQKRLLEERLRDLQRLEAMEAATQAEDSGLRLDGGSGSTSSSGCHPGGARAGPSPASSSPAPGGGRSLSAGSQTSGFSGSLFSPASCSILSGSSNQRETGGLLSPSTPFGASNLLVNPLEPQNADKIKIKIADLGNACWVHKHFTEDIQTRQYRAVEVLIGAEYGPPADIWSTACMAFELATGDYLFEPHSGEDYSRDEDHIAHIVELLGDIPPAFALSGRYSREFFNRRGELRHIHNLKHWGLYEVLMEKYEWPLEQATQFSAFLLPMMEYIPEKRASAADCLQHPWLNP
Serine/threonine-protein kinase 38 (Homo sapiens), sequence (Q15208 2-465 limits assumed): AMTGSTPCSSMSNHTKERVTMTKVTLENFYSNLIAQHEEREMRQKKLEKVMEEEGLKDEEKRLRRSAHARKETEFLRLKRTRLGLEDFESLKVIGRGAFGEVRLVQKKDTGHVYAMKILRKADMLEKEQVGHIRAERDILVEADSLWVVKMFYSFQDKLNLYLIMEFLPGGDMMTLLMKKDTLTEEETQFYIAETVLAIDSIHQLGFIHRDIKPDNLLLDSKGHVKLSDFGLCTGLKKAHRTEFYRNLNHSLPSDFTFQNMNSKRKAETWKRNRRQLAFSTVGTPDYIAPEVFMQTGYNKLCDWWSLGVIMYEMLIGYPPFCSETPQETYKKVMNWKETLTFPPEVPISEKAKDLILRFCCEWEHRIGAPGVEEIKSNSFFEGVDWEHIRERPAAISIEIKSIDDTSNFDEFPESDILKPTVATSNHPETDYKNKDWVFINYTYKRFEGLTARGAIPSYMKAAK
Serine/threonine-protein kinase WNK3 (Homo sapiens), sequence (Q9BYP7 whole entry): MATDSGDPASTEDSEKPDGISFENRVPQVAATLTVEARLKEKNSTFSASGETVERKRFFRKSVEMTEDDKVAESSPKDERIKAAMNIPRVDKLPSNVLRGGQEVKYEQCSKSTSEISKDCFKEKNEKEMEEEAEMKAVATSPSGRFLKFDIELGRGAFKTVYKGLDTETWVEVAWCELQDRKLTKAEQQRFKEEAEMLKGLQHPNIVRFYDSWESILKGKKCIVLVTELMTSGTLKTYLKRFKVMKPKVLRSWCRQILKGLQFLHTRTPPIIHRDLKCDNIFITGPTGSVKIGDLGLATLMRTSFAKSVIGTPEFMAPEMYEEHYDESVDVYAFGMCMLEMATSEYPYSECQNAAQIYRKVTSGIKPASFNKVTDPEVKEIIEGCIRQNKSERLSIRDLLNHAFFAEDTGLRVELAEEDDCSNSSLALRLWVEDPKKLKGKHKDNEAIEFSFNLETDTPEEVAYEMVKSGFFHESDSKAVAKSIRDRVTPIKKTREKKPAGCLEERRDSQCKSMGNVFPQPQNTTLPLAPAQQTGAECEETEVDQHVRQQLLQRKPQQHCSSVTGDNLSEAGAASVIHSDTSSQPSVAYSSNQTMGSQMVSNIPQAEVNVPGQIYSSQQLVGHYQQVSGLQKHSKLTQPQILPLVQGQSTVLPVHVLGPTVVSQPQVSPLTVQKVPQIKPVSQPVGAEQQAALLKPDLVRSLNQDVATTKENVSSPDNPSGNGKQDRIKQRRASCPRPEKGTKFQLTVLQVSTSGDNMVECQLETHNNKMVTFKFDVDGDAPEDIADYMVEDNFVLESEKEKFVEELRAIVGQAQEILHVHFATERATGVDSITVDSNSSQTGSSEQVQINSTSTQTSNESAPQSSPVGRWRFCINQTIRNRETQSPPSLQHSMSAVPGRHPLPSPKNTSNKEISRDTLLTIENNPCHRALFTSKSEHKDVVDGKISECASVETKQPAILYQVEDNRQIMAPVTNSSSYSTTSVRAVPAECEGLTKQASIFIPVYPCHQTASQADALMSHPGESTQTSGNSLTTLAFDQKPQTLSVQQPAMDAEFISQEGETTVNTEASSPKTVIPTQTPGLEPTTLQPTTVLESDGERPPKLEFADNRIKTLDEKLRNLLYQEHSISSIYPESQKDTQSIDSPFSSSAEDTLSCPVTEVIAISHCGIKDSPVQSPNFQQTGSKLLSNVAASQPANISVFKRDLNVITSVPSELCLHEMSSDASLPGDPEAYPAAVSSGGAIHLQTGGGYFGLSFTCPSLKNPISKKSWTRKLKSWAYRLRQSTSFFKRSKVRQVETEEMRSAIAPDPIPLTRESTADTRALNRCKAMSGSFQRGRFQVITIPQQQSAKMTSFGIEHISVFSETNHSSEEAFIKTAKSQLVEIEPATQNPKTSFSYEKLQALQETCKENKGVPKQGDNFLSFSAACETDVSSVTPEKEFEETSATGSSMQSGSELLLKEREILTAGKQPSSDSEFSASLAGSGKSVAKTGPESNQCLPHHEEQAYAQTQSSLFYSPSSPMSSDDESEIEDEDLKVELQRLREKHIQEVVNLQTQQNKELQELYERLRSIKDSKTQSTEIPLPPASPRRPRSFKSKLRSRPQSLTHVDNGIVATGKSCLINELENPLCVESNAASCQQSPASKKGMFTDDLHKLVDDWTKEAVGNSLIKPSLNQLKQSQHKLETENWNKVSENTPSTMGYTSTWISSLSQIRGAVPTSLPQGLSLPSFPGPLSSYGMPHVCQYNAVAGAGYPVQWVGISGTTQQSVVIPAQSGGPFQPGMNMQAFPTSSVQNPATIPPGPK
LIM domain kinase 1 (Homo sapiens), sequence (P53667 whole entry, looked up, the tested form may be a part): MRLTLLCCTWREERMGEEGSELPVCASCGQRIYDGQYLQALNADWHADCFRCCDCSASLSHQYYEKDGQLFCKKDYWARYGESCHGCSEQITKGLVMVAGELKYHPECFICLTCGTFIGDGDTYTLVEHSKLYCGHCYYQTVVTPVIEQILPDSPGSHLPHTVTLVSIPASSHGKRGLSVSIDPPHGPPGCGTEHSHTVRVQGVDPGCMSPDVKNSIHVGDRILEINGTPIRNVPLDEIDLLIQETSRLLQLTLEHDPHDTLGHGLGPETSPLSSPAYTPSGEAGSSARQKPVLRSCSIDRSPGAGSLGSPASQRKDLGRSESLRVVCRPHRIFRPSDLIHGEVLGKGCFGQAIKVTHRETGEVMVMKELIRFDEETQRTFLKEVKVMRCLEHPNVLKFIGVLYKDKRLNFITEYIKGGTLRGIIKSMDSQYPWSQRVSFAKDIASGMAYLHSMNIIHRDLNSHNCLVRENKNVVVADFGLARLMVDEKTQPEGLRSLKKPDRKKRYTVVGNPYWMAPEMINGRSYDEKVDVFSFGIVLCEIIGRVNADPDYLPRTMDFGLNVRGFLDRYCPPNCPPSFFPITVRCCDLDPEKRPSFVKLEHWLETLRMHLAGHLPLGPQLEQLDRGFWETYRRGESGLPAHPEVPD

With `Cc1ccc(-c2ccc3c(ccc4sc5c(c43)NC[C@@H](C)NC5=O)n2)cn1` the % of inhibition [1] was -1%.

With `Nc1cnc(N2CCc3cc(S(=O)(=O)Nc4c(F)cc(Cl)cc4F)cc(N4CCCC4=O)c32)nc1` [TP-020n] the % of control [2] was 100% and the % of control [3] was 100%.

`O=C(NOC[C@H](O)CO)c1ccc(F)c(F)c1Nc1ccc(I)cc1F` was tested, and the % of control [4] was 67% and the % of control [5] was 77%.

For `CN1CCN(C(=O)c2ccc3cc2OCCOCCNc2ccn4ncc-3c4n2)CC1`, the dTM [6] was 1.5 K.

For `Cn1cc(-n2cnc3c(NCc4nc5cc(Cl)c(Cl)cc5[nH]4)nc(N4CCOCC4)nc32)cn1`, the % of inhibition [7] was -27%.

With `C=CC(=O)Nc1cc(-n2c(=O)ccc3cnc4ccc(-c5ccc(NS(C)(=O)=O)cc5)cc4c32)ccc1C` the % of control ([8]; at 1 µM) was 91% and the % of control ([8]; at 10 µM) was 100%.

`O[C@H]1CC[C@H](Nc2ncc3nc(Nc4c(F)cc(F)cc4F)n([C@H]4CCOC4)c3n2)CC1` gave a % of control [9] of 35%.

Work on `CN(C)C/C=C/C(=O)Nc1ccc(C(=O)N2CCCC(Nc3ncc(Cl)c(-c4c[nH]c5ccccc45)n3)C2)cc1` (stereo unspecified) yielded a % of control [10] of 90%.
